Active and inactive are the calls of the source. The rule behind the calls is not given here.
Key:
Mus musculus = assay: Toxicity in Plasmodium berghei NK65-infected ICR mice (Mus musculus) assessed as death at 20 mg/kg/day, intraperitoneally administered 24 hrs after infection for 3 consecutive days measured 4 days postinfection; type: organism-based; parameters: route intraperitoneal; conditions: in vivo, ip, 96 h
Plasmodium berghei [1] = assay: Antimalarial activity as reduced parasitaemia against Plasmodium berghei NK65 infected ICR mice (Mus musculus) at 20 mg/kg/day intraperitoneal dose at day 4; type: functional; parameters: scale not given: the % may be the effect or the level left
Plasmodium berghei [2] = assay: Antimalarial activity as mean survival days against Plasmodium berghei NK65 infected ICR mice (Mus musculus) at 20 mg/kg/day intraperitoneal dose; type: functional
Plasmodium berghei [3] = assay: Antimalarial activity as reduced parasitaemia at day 4 against Plasmodium berghei NK65 infected ICR mice (Mus musculus) at 100 mg/kg/day peroral dose for 3 days; type: functional; parameters: scale not given: the % may be the effect or the level left; conditions: route oral
Plasmodium berghei [4] = assay: Antimalarial activity as mean survival days against Plasmodium berghei NK65 infected ICR mice (Mus musculus) at 100 mg/kg/day peroral dose at day 4; type: functional; conditions: route oral
Plasmodium berghei [5] = assay: Antimalarial activity as mean survival days against Plasmodium berghei NK65 infected ICR mice (Mus musculus) at 30 mg/kg/day peroral dose; type: functional; conditions: route oral
Plasmodium berghei [6] = assay: Antimalarial activity as reduced parasitaemia against Plasmodium berghei NK65 infected ICR mice (Mus musculus) at 30 mg/kg/day peroral dose at day 4; type: functional; parameters: scale not given: the % may be the effect or the level left; conditions: route oral
Plasmodium berghei [7] = assay: Antimalarial activity at day 4 against Plasmodium berghei NK65 infected ICR mice (Mus musculus) as reduced parasitaemia at 10 mg/kg/day intraperitoneal dose 24 hrs post infection; type: functional; parameters: scale not given: the % may be the effect or the level left
Plasmodium berghei [8] = assay: Antimalarial activity as mean survival days against Plasmodium berghei NK65 infected ICR mice (Mus musculus) at 10 mg/kg/day intraperitoneal dose 24 hrs post infection; type: functional
Plasmodium berghei [9] = assay: Antimalarial activity as reduced parasitaemia at day 7 against Plasmodium berghei NK65 infected ICR mice (Mus musculus) at 30 mg/kg/day peroral dose for 3 days; type: functional, organism-based
[10] = Oral bioavailability in Wistar rat at 30 mg/kg administered as single dose; type: ADME, organism-based; conditions: in vivo
[11] = Oral bioavailability in Wistar rat at 4 mg/kg administered as single dose; type: ADME, organism-based; conditions: in vivo
[12] = Selectivity index, ratio of IC50 for rat L6 cells to IC50 for chloroquine and pyrimethamine-resistant Plasmodium falciparum K1; type: toxicity, cell-based; conditions: read-out: Ratio IC50
[13] = Plasma concentration in fasted Wistar rat at 30 mg/kg/day, po after 49 hrs by HPLC; type: ADME, organism-based; parameters: route oral
[14] = Plasma concentration in fasted Wistar rat at 4 mg/kg, po administered as single dose after 1 hr by HPLC; type: ADME, organism-based; parameters: dose 4 mg/kg, route oral
[15] = Apparent volume of distribution in Wistar rat at 4 mg/kg, iv administered as single dose; type: ADME, organism-based; parameters: dose 4 mg/kg, route intravenous; conditions: in vivo, read-out: Vz
Plasmodium berghei [16] = assay: Antimalarial activity as reduced parasitaemia against Plasmodium berghei NK65 infected ICR mice (Mus musculus) at 4 mg/kg peroral dose at day 4; type: functional; parameters: scale not given: the % may be the effect or the level left; conditions: route oral
[17] = Tmax in Wistar rat at 30 mg/kg, po administered as single dose; type: ADME, organism-based; parameters: dose 30 mg/kg, route oral; conditions: in vivo
[18] = Clearance in Wistar rat at 4 mg/kg, po administered as single dose; type: ADME, organism-based; parameters: dose 4 mg/kg, route oral; conditions: in vivo
Rattus norvegicus [19] = assay: Apparent volume of distribution in Wistar rat at 4 mg/kg, po administered as single dose; type: ADME, organism-based; parameters: dose 4 mg/kg, route oral; conditions: in vivo
Plasmodium berghei [20] = assay: Antimalarial activity as recurrence of parasitaemia at day 5 in Plasmodium berghei NK65 infected ICR mice (Mus musculus) at 4 mg/kg/day peroral dose for 3 days; type: functional, organism-based
[21] = Plasma concentration in fasted Wistar rat at 30 mg/kg, po administered as single dose after 2 hrs by HPLC; type: ADME, organism-based; parameters: dose 30 mg/kg, route oral
[22] = Plasma concentration in fasted Wistar rat at 30 mg/kg, po administered as single dose after 1 hr by HPLC; type: ADME, organism-based; parameters: dose 30 mg/kg, route oral
[23] = Plasma concentration in fasted Wistar rat at 30 mg/kg/day, po after 25 hrs by HPLC; type: ADME, organism-based; parameters: route oral
Plasmodium berghei [24] = assay: Antimalarial activity as reduced parasitaemia against Plasmodium berghei NK65 infected ICR mice (Mus musculus) at 4 mg/kg intravenous dose at day 4; type: functional; parameters: scale not given: the % may be the effect or the level left
Plasmodium berghei [25] = assay: Antimalarial activity recurrence of parasitaemia in Plasmodium berghei NK65 infected ICR mice (Mus musculus) at 4 mg/kg/day intravenous dose for 3 days; type: functional, organism-based
Plasmodium berghei [26] = assay: (§1) Antimalarial activity as reduced parasitaemia at day 6 against Plasmodium berghei NK65 infected ICR mice (Mus musculus) at 30 mg/kg/day peroral dose for 3 days; type: functional; parameters: scale not given: the % may be the effect or the level left; conditions: route oral
[27] = Plasma concentration in fasted Wistar rat at 4 mg/kg, po administered as single dose after 2 hrs by HPLC; type: ADME, organism-based; parameters: dose 4 mg/kg, route oral
[28] = Plasma concentration in Wistar rat at 4 mg/kg, iv administered as single dose after 4 hrs by HPLC; type: ADME, organism-based; parameters: dose 4 mg/kg, route intravenous
[29] = Half life in Wistar rat at 30 mg/kg, po administered as single dose; type: ADME, organism-based; parameters: dose 30 mg/kg, route oral; conditions: in vivo
Plasmodium berghei [30] = assay: Antimalarial activity as reduced parasitaemia against Plasmodium berghei NK65 infected ICR mice (Mus musculus) at 30 mg/kg peroral dose at day 4; type: functional; parameters: scale not given: the % may be the effect or the level left; conditions: route oral
[31] = Clearance in Wistar rat at 30 mg/kg, po administered as single dose; type: ADME, organism-based; parameters: dose 30 mg/kg, route oral; conditions: in vivo
Rattus norvegicus [32] = assay: Apparent volume of distribution in Wistar rat at 30 mg/kg, po administered as single dose; type: ADME, organism-based; parameters: dose 30 mg/kg, route oral; conditions: in vivo
[33] = Plasma concentration in fasted Wistar rat at 30 mg/kg, po after 1 hr by HPLC; type: ADME, organism-based; parameters: dose 30 mg/kg, route oral
[34] = Tmax in Wistar rat at 4 mg/kg, po administered as single dose; type: ADME, organism-based; parameters: dose 4 mg/kg, route oral; conditions: in vivo
[35] = Plasma concentration in Wistar rat at 4 mg/kg, iv administered as single dose after 10 mins by HPLC; type: ADME, organism-based; parameters: dose 4 mg/kg, route intravenous
[36] = Clearance in Wistar rat at 4 mg/kg, iv administered as single dose; type: ADME, organism-based; parameters: dose 4 mg/kg, route intravenous; conditions: in vivo
[37] = Half life in Wistar rat at 4 mg/kg, po administered as single dose; type: ADME, organism-based; parameters: dose 4 mg/kg, route oral; conditions: in vivo
Plasmodium berghei [38] = assay: as §1; type: functional, organism-based
[39] = Half life in Wistar rat at 4 mg/kg, iv administered as single dose; type: ADME, organism-based; parameters: dose 4 mg/kg, route intravenous; conditions: in vivo
Plasmodium falciparum = assay: Antimalarial activity against chloroquine and pyrimethamine-resistant Plasmodium falciparum K1; type: functional, organism-based

With `CCCCN(CCCC)c1ccc2nc3ccc(N4CCCCC4)cc3[o+]c2c1.[Cl-]` the Activity (Mus musculus) was “Toxic”.
In the case of `CCN(CC)c1ccc2nc3ccc(N4CCSCC4)cc3[o+]c2c1.[Cl-]`, the Activity (Plasmodium berghei [1]) is reported as 99.2%, the MSD (Plasmodium berghei [2]) is reported as 11.5 days and the Activity (Plasmodium berghei [3]) is reported as 66.3%. For the same compound, the MSD (Plasmodium berghei [4]) was 6.3 days.
For `CCCN(CCC)c1ccc2nc3ccc(N4CCCCC4)cc3[o+]c2c1.[Cl-]`, the Activity (Plasmodium berghei [1]) was 93.2%, the MSD (Plasmodium berghei [2]) was 12.3 days and the Activity (Plasmodium berghei [3]) was 97.6%. For the same compound, the MSD (Plasmodium berghei [4]) was 10.3 days.
With `CCN(CC)CCCC(C)Nc1ccnc2cc(Cl)ccc12` (configuration not stated) [CHLOROQUINE] the MSD (Plasmodium berghei [5]) was 9.6 days, the Activity (Plasmodium berghei [6]) was 98.4% and the Activity (Plasmodium berghei [7]) was 90.6%. For the same compound, the MSD (Plasmodium berghei [8]) was 22.7 days.
`CN(C)c1ccc2nc3ccc(N4CCSCC4)cc3[o+]c2c1.[Cl-]` gave an Activity (Plasmodium berghei [1]) of 94.5%, an MSD (Plasmodium berghei [2]) of 9.8 days and an Activity (Plasmodium berghei [3]) of 84.9%. For the same compound, the MSD (Plasmodium berghei [4]) was 11.3 days.
`CN(C)c1ccc2nc3ccc(N4CCCCC4)cc3[o+]c2c1.[Cl-]` gave an Activity (Plasmodium berghei [1]) of 96.4%, an MSD (Plasmodium berghei [2]) of 15.5 days and an Activity (Plasmodium berghei [3]) of 97.8%. For the same compound, the MSD (Plasmodium berghei [4]) was 7.6 days.
Compound `CN(C)c1ccc2nc3ccc(N4CCCC4)cc3[o+]c2c1.[Cl-]` has an Activity (Plasmodium berghei [1]) of 95.7%, an MSD (Plasmodium berghei [2]) of 7.8 days and an Activity (Plasmodium berghei [3]) of 90.3%. The MSD (Plasmodium berghei [4]) was 10 days.
In the case of `CCCCCCN(CCCCCC)c1ccc2nc3ccc(N4CCCCC4)cc3[o+]c2c1.[Cl-]`, the Activity (Mus musculus) is reported as “Toxic”.
`CCN(CC)c1ccc2nc3ccc(N4CCOCC4)cc3[o+]c2c1.[Cl-]` gave an Activity (Plasmodium berghei [1]) of 90%, an MSD (Plasmodium berghei [2]) of 12.3 days and an Activity (Plasmodium berghei [3]) of 96.3%. It also gave an MSD (Plasmodium berghei [4]) of 13 days.
For `[Cl-].c1cc2nc3ccc(N4CCCC4)cc3[o+]c2cc1N1CCCC1`, the Activity (Plasmodium berghei [1]) was 95.4%, the MSD (Plasmodium berghei [2]) was 8.3 days and the Activity (Plasmodium berghei [3]) was 95.3%. For the same compound, the MSD (Plasmodium berghei [4]) was 8.3 days.
Work on `CCCN(CCC)c1ccc2nc3ccc(N4CCCC4)cc3[o+]c2c1.[Cl-]` yielded an Activity (Plasmodium berghei [1]) of 95.2%, an MSD (Plasmodium berghei [2]) of 14.8 days and an Activity (Plasmodium berghei [3]) of 99.6%. It also gave an MSD (Plasmodium berghei [4]) of 10 days.
In the case of `CCCCCN(CCCCC)c1ccc2nc3ccc(N4CCCCC4)cc3[o+]c2c1.[Cl-]`, the Activity (Mus musculus) is reported as “Toxic”.
For `CCCN(CCC)c1ccc2nc3ccc(N4CCOCC4)cc3[o+]c2c1.[Cl-]`, the Activity (Plasmodium berghei [1]) was 95.7%, the MSD (Plasmodium berghei [2]) was 18 days and the Activity (Plasmodium berghei [3]) was 99.5%. For the same compound, the MSD (Plasmodium berghei [4]) was 10 days.
In the case of `CCCN(CCC)c1ccc2nc3ccc(N4CCSCC4)cc3[o+]c2c1.[Cl-]`, the Activity (Plasmodium berghei [1]) is reported as 96.5%, the MSD (Plasmodium berghei [2]) is reported as 12.5 days and the Activity (Plasmodium berghei [3]) is reported as 68.9%. The MSD (Plasmodium berghei [4]) was 7 days.
For `[Cl-].c1cc2nc3ccc(N4CCCCC4)cc3[o+]c2cc1N1CCCCC1`, the Activity (Plasmodium berghei [1]) was 97.2%, the MSD (Plasmodium berghei [2]) was 16.8 days and the Activity (Plasmodium berghei [3]) was 99.8%. The MSD (Plasmodium berghei [4]) was 11.3 days.
In the case of `CCN(CC)c1ccc2nc3ccc(N4CCCCC4)cc3[o+]c2c1.[Cl-]`, the Activity (Plasmodium berghei [9]) is reported as “inactive”, the Activity (Plasmodium berghei [1]) is reported as 95.9% and the bioavailability [10] is reported as 60.7%. For the same compound, the MSD (Plasmodium berghei [2]) was 23.3 days, the bioavailability [11] was 89.6% and the selectivity ratio [12] was 2390. The concentration at 49 h [13] was 583 ng/mL, the concentration at 1 h [14] was 658 ng/mL and the Vd [15] was 35.3 L/kg. The Activity (Plasmodium berghei [16]) was 76%, the Tmax [17] was 0.98 h and the CL/F [18] was 43.3 mL/min/kg. The Activity (Plasmodium berghei [3]) was 97.8%, the Vz (Rattus norvegicus [19]) was 36.9 L/kg and the Activity (Plasmodium berghei [20]) was “inactive”. It also gave a concentration at 2 h [21] of 158 ng/mL, a concentration at 1 h [22] of 658 ng/mL and a concentration at 25 h [23] of 420 ng/mL. The Activity (Plasmodium berghei [24]) was 85.9%, the Activity (Plasmodium berghei [25]) was “inactive” and the Activity (Plasmodium berghei [26]) was 90%. The concentration at 2 h [27] was 158 ng/mL, the concentration at 4 h [28] was 96.6 ng/mL and the half-life [29] was 10.3 h. The Activity (Plasmodium berghei [30]) was 96.2%, the CL/F [31] was 43.3 mL/min/kg and the Vz (Rattus norvegicus [32]) was 38.5 L/kg. For the same compound, the concentration at 1 h [33] was 299 ng/mL, the Tmax [34] was 0.99 h and the concentration at 10 min [35] was 468 ng/mL. The clearance [36] was 44.5 mL/min/kg, the half-life [37] was 9.84 h and the Activity (Plasmodium berghei [38]) was “Active”. The half-life [39] was 8.82 h, the IC50 (Plasmodium falciparum) was 2.69 nM and the MSD (Plasmodium berghei [4]) was 12.7 days.

From ChEMBL document CHEMBL1152732, “Pharmacodynamics and pharmacokinetics studies of phenoxazinium derivatives for antimalarial agent” (Bioorg Med Chem, 2009)
